From US20240158446A1, “CYCLIC COMPOUND HAVING SELECTIVE INHIBITORY ACTION ON KRAS OVER HRAS AND NRAS” (CHUGAI SEIYAKU KABUSHIKI KAISHA, priority 2021, published 2024)

Key:
[1] = target: GDP-bound NRAS wild-type protein (Homo sapiens, UniProt P01111); assay: Binding to NRAS by surface plasmon resonance (SPR), Single Cycle Kinetics; settings: ratio of KD for GDP-bound NRAS wild-type protein to KD for KRAS, SPR
[2] = tested on: human lung cancer strain NCI-H441; assay: cells; settings: NCI-H441, 96 h, read-out: NCI-H441 IC50 (nM), NCI-H441 cell proliferation, 4 days, CellTiter-Glo;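 further: cell proliferation inhibition after four days measured by CellTiter-Glo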
[3] = target: GDP-bound HRAS wild-type protein (Homo sapiens, UniProt P01112); assay: Binding to HRAS by surface plasmon resonance (SPR), Single Cycle Kinetics; settings: ratio of KD for GDP-bound HRAS wild-type protein to KD for KRAS, SPR
Chain of GDP-bound HRAS wild-type protein (P01112 whole entry): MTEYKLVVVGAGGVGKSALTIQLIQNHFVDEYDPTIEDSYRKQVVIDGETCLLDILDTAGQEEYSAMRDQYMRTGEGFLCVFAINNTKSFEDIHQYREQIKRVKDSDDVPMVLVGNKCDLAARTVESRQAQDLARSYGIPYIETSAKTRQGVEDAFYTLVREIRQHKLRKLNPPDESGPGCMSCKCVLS

Chain of GDP-bound NRAS wild-type protein (P01111 whole entry): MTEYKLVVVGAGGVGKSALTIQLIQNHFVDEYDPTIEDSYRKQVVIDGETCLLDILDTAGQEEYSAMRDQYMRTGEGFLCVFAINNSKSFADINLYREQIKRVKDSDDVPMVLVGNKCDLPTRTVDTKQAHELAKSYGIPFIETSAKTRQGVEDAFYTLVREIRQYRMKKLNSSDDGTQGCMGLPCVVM

SMILES	NRAS/KRAS (KD ratio) [1]	IC50 [2]	HRAS/KRAS (KD ratio) [3]
CC[C@H](C)[C@@H]1NC(=O)[C@H](CC2CC2)N(C)C(=O)C[C@@H](C(=O)N(C)CC)N(C)C(=O)[C@H](C2CCCC2)N(C)C(=O)C2(CC(C)(C)C2)NC(=O)[C@@H]2C[C@@H](C)CN2C(=O)[C@H](CCc2ccc(C(F)(F)F)c(OC)c2)NC(=O)CN(C)C(=O)[C@H](Cc2ccc(C)cc2)N2CC/C=C\C[C@@H](C2=O)N(C)C(=O)CN(C)C1=O [PP1902]	A (a compound having 10 or more and less than 20 is denoted as A)	12.5 nM	A (a compound having 10 or more and less than 20 is denoted as A)
CCO[C@@H]1C[C@H]2C(=O)NC3(CC(C)(C)C3)C(=O)N(C)[C@@H](C3CCCC3)C(=O)N(C)[C@H](C(=O)N(C)C)CC(=O)N(C)[C@@H](CC3CC3)C(=O)N[C@@H]([C@@H](C)CC)C(=O)N(C)CC(=O)N(C)[C@H]3C/C=C\CCN(C3=O)[C@@H](Cc3ccc(C)cc3)C(=O)N(C)CC(=O)N[C@@H](CCc3ccc(C(F)(F)F)c(OC)c3)C(=O)N2C1 [PP1903]	A (a compound having 10 or more and less than 20 is denoted as A)	5.5 nM	B (a compound having 3 or more and less than 10 is denoted as B)
CCO[C@@H]1C[C@H]2C(=O)NC3(CCC3)C(=O)N(C)[C@@H](C3CCCC3)C(=O)N(C)[C@H](C(=O)N(C)CC)CC(=O)N(C)[C@@H](CC(C)C)C(=O)N[C@@H]([C@@H](C)CC)C(=O)N(C)CC(=O)N(C)[C@H]3C/C=C\CCN(C3=O)[C@@H](Cc3ccc(C)cc3)C(=O)N(C)CC(=O)N[C@@H](CCc3ccc(C(F)(F)F)c(OC)c3)C(=O)N2C1 [PP1910]	A (a compound having 10 or more and less than 20 is denoted as A)	9.7 nM	B (a compound having 3 or more and less than 10 is denoted as B)
CCO[C@@H]1C[C@H]2C(=O)NC(C)(C)C(=O)N(C)[C@@H](C3CCCC3)C(=O)N(C)[C@H](C(=O)N(C)CC)CC(=O)N(C)[C@@H](CC(C)C)C(=O)N[C@@H]([C@@H](C)CC)C(=O)N(C)CC(=O)N(C)[C@H]3C/C=C\CCN(C3=O)[C@@H](Cc3ccc(C(F)(F)F)cc3)C(=O)N(C)CC(=O)N[C@@H](CCc3cc(F)c(C(F)(F)F)c(F)c3)C(=O)N2C1 [PP1937]	A (a compound having 10 or more and less than 20 is denoted as A)	6.8 nM	A (a compound having 10 or more and less than 20 is denoted as A)
CCCN(C)C(=O)[C@@H]1CC(=O)N(C)[C@@H](CC(C)C)C(=O)N[C@@H]([C@@H](C)CC)C(=O)N(C)CC(=O)N(C)[C@H]2C/C=C\CCN(C2=O)[C@@H](Cc2ccc(C(F)(F)F)cc2)C(=O)N(C)CC(=O)N[C@@H](CCc2cc(F)c(C(F)(F)F)c(F)c2)C(=O)N2C[C@H](OCC)C[C@H]2C(=O)NC2(COC2)C(=O)N(C)[C@@H](C2CCCC2)C(=O)N1C [PP1938]	AA (a compound having 20 or more is denoted as AA)	34.6 nM	A (a compound having 10 or more and less than 20 is denoted as A)
CC[C@H](C)[C@@H]1NC(=O)[C@H](C2CC2)N(C)C(=O)C[C@@H](C(=O)N(C)CC)N(C)C(=O)[C@H](C2CCCC2)N(C)C(=O)C2(CC(C)(C)C2)NC(=O)[C@@H]2C[C@H](C)CN2C(=O)[C@H](CCc2cc(F)c(C(F)(F)F)c(F)c2)NC(=O)CN(C)C(=O)[C@H](Cc2ccc(C(F)(F)F)cc2)N2CC/C=C\C[C@@H](C2=O)N(C)C(=O)CN(C)C1=O [PP1980]	A (a compound having 10 or more and less than 20 is denoted as A)	30.1 nM	B (a compound having 3 or more and less than 10 is denoted as B)
CCCOC[C@H]1C(=O)N[C@@H]([C@@H](C)CC)C(=O)N(C)CC(=O)N(C)[C@H]2C/C=C\CCN(C2=O)[C@@H](Cc2ccc(C(F)(F)F)cc2)C(=O)N(C)CC(=O)N[C@@H](CCc2ccc(C(F)(F)F)c(OC)c2)C(=O)N2C[C@@H](C)C[C@H]2C(=O)NC2(CC(C)(C)C2)C(=O)N(C)[C@@H](C2CCCC2)C(=O)N(C)[C@H](C(=O)N(C)C)CC(=O)N1C [PP1997]	A (a compound having 10 or more and less than 20 is denoted as A)	14.2 nM	B (a compound having 3 or more and less than 10 is denoted as B)
CCCN(C)C(=O)[C@@H]1CC(=O)N(C)[C@@H](C2CCC2)C(=O)N[C@@H]([C@@H](C)CC)C(=O)N(C)CC(=O)N(C)[C@H]2C/C=C\CCN(C2=O)[C@@H](Cc2ccc(C(F)(F)F)cc2)C(=O)N(C)CC(=O)N[C@@H](CCc2cc(F)c(C(F)(F)F)c(F)c2)C(=O)N2C[C@H](OCC)C[C@H]2C(=O)NC2(CCC2)C(=O)N(C)[C@@H](C2CCCC2)C(=O)N1C [PP1998]	A (a compound having 10 or more and less than 20 is denoted as A)	16.1 nM	B (a compound having 3 or more and less than 10 is denoted as B)
CCCN(C)C(=O)[C@@H]1CC(=O)N(C)[C@@H](CC(F)F)C(=O)N[C@@H]([C@@H](C)CC)C(=O)N(C)CC(=O)N(C)[C@H]2C/C=C\CCN(C2=O)[C@@H](Cc2ccc(C(F)(F)F)cc2)C(=O)N(C)CC(=O)N[C@@H](CCc2cc(F)c(C(F)(F)F)c(F)c2)C(=O)N2C[C@@H](C)C[C@H]2C(=O)NC2(CCC2)C(=O)N(C)[C@@H](C2CCCC2)C(=O)N1C [PP2000]	A (a compound having 10 or more and less than 20 is denoted as A)	17.7 nM	B (a compound having 3 or more and less than 10 is denoted as B)
CCCOC[C@H]1C(=O)N[C@@H]([C@@H](C)CC)C(=O)N(C)CC(=O)N(C)[C@H]2C/C=C\CCN(C2=O)[C@@H](Cc2ccc(C(F)(F)F)cc2)C(=O)N(C)CC(=O)N[C@@H](CCc2cc(F)c(C(F)(F)F)c(F)c2)C(=O)N2C[C@@H](C)C[C@H]2C(=O)NC2(CCC2)C(=O)N(C)[C@@H](C2CCCC2)C(=O)N(C)[C@H](C(=O)N(C)CCC)CC(=O)N1C [PP2008]	A (a compound having 10 or more and less than 20 is denoted as A)	15.2 nM	A (a compound having 10 or more and less than 20 is denoted as A)
CCCOC[C@H]1C(=O)N[C@@H]([C@@H](C)CC)C(=O)N(C)CC(=O)N(C)[C@H]2C/C=C\CCN(C2=O)[C@@H](Cc2ccc(C(F)(F)F)cc2)C(=O)N(C)CC(=O)N[C@@H](CCc2ccc(C(F)(F)F)c(OC)c2)C(=O)N2C[C@H](OCC)C[C@H]2C(=O)NC2(CCC2)C(=O)N(C)[C@@H](C2CCCC2)C(=O)N(C)[C@H](C(=O)N(C)CCC)CC(=O)N1C [PP2017]	A (a compound having 10 or more and less than 20 is denoted as A)	2.5 nM	A (a compound having 10 or more and less than 20 is denoted as A)
CCO[C@@H]1C[C@H]2C(=O)NC3(CCC3)C(=O)N(C)[C@@H](C3CCCC3)C(=O)N(C)[C@H](C(=O)N(C)CC)CC(=O)N(C)[C@@H](C3CCC3)C(=O)N[C@@H]([C@@H](C)CC)C(=O)N(C)CC(=O)N(C)[C@H]3C/C=C\CCN(C3=O)[C@@H](Cc3ccc(C(F)(F)F)cc3)C(=O)N(C)CC(=O)N[C@@H](CCc3ccc(C(F)(F)F)c(OC)c3)C(=O)N2C1 [PP2022]	A (a compound having 10 or more and less than 20 is denoted as A)	2.7 nM	A (a compound having 10 or more and less than 20 is denoted as A)
CCCN(C)C(=O)[C@@H]1CC(=O)N(C)[C@@H](C2CCC2)C(=O)N[C@@H]([C@@H](C)CC)C(=O)N(C)CC(=O)N(C)[C@H]2C/C=C\CCN(C2=O)[C@@H](Cc2ccc(C(F)(F)F)cc2)C(=O)N(C)CC(=O)N[C@@H](CCc2ccc(C(F)(F)F)c(OC)c2)C(=O)N2C[C@H](OCC)C[C@H]2C(=O)NC2(CCC2)C(=O)N(C)[C@@H](C2CCCC2)C(=O)N1C [PP2023]	A (a compound having 10 or more and less than 20 is denoted as A)	10.5 nM	B (a compound having 3 or more and less than 10 is denoted as B)
CCCN(C)C(=O)[C@@H]1CC(=O)N(C)[C@@H](CC(F)F)C(=O)N[C@@H]([C@@H](C)CC)C(=O)N(C)CC(=O)N(C)[C@H]2C/C=C\CCN(C2=O)[C@@H](Cc2ccc(C(F)(F)F)cc2)C(=O)N(C)CC(=O)N[C@@H](CCc2ccc(C(F)(F)F)c(OC)c2)C(=O)N2C[C@@H](C)C[C@H]2C(=O)NC2(CCC2)C(=O)N(C)[C@@H](C2CCCC2)C(=O)N1C [PP2024]	A (a compound having 10 or more and less than 20 is denoted as A)	10.1 nM	B (a compound having 3 or more and less than 10 is denoted as B)
CCCN(C)C(=O)[C@@H]1CC(=O)N(C)[C@@H](COCC)C(=O)N[C@@H]([C@@H](C)CC)C(=O)N(C)CC(=O)N(C)[C@H]2C/C=C\CCN(C2=O)[C@@H](Cc2ccc(C(F)(F)F)cc2)C(=O)N(C)CC(=O)N[C@@H](CCc2ccc(C(F)(F)F)c(OC)c2)C(=O)N2C[C@@H](C)C[C@H]2C(=O)NC2(CCC2)C(=O)N(C)[C@@H](C2CCCC2)C(=O)N1C [PP2025]	A (a compound having 10 or more and less than 20 is denoted as A)	13.4 nM	B (a compound having 3 or more and less than 10 is denoted as B)
CCCOC[C@H]1C(=O)N[C@@H]([C@@H](C)CC)C(=O)N(C)CC(=O)N(C)[C@H]2C/C=C\CCN(C2=O)[C@@H](Cc2ccc(C(F)(F)F)cc2)C(=O)N(C)CC(=O)N[C@@H](CCc2ccc(C(F)(F)F)c(OC)c2)C(=O)N2C[C@@H](C)C[C@H]2C(=O)NC2(CCC2)C(=O)N(C)[C@@H](C2CCCC2)C(=O)N(C)[C@H](C(=O)N(C)CC)CC(=O)N1C [PP2027]	A (a compound having 10 or more and less than 20 is denoted as A)	14 nM	B (a compound having 3 or more and less than 10 is denoted as B)
